According to the supplement of paper PMC10307832:

What was measured:
[1] = compound: COC1=CC=C(C=C1)CN2C=CC3=C2C=C(C=C3)C(=O)NO + O=C(CCCCCCC(=O)Nc1ccccc1)NO [Vorinostat] (partner 1 µM); assay: relative viability (nuclei count vs DMSO), 5 days (fraction); higher = more cells survive
Outline: (§1)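 A single step with final 0.05% Triton X-100, 1% formaldehyde and 1 ug/ml Hoechst fixed the cells and stained nuclei 5 days after treatment. Lung cancer cell lines in 1536-well plates had been treated by pin tool the day after seeding with one drug alone or a fixed anchor-drug dose plus five library-drug doses (not always all listed) in √10 steps, and nuclei were counted on 4× images. Relative viability is the ratio of nuclei in treated wells to nuclei in vehicle wells, taken as the median of duplicate plates.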

[2] = compound: COC1=CC=C(C=C1)CN2C=CC3=C2C=C(C=C3)C(=O)NO + NC(=O)Nc1cc(-c2cccc(F)c2)sc1C(=O)N[C@H]1CCCNC1 [AZD7762] (partner 0.2 µM); assay: as above
Outline: as §1

Cell Line | relative viability ([1]; first compound 0.253 µM) | relative viability ([1]; first compound 0.8 µM) | relative viability ([1]; first compound 2.53 µM) | relative viability ([1]; first compound 8 µM) | relative viability ([2]; first compound 0.08 µM) | relative viability ([2]; first compound 0.253 µM) | relative viability ([2]; first compound 0.8 µM) | relative viability ([2]; first compound 2.53 µM) | relative viability ([2]; first compound 8 µM) | relative viability ([1]; first compound 0.08 µM)
NCI-H661 | 0.807 | 0.717 | 0.747 | 0.639 | – | – | – | – | – | –
NCI-H727 | 1.17 | 1.22 | 1.25 | 1.25 | 0.653 | 0.538 | 0.57 | 0.503 | 0.654 | 1.13
NCI-H838 | 0.614 | 0.75 | 0.771 | 0.737 | 0.694 | 0.981 | 0.949 | 0.967 | 0.909 | 0.285
NCI-H1355 | 0.695 | 0.65 | 0.625 | 0.589 | 0.392 | 0.817 | 0.745 | 0.761 | 0.574 | 0.223
NCI-H1395 | 0.634 | 0.816 | 0.84 | 0.574 | – | 0.394 | 0.382 | 0.398 | 0.397 | –
NCI-H1437 | 0.766 | 0.881 | 0.891 | 1.01 | 1.02 | 1.13 | 1.03 | 1.13 | 1.1 | 0.684
NCI-H1648 | 0.515 | 0.337 | 0.528 | 0.406 | 0.523 | 0.584 | 0.723 | 0.447 | 0.525 | 0.373
NCI-H1650 | 0.557 | 0.595 | 0.684 | 0.532 | – | – | – | – | – | 0.354
NCI-H1651 | 0.512 | 0.498 | 0.464 | 0.475 | 0.414 | 0.437 | 0.394 | 0.406 | 0.369 | 0.52
NCI-H1666 | 1.09 | 1.01 | 1.09 | 1.04 | 0.799 | 0.872 | 0.782 | 0.784 | 0.765 | 0.945
NCI-H1703 | – | – | – | – | 0.176 | 0.167 | 0.146 | 0.123 | 0.121 | –
NCI-H1734 | 0.882 | 0.779 | 0.731 | 0.658 | – | 0.612 | 0.559 | 0.567 | 0.481 | –
NCI-H1755 | 0.884 | 0.777 | 0.876 | 0.725 | 0.395 | 0.439 | 0.497 | 0.516 | 0.35 | 0.694
NCI-H1792 | – | – | – | – | 0.755 | 0.792 | 0.716 | 0.592 | 0.55 | –
NCI-H1793 | 0.832 | 0.801 | 0.816 | 0.759 | – | 0.726 | 0.444 | 0.557 | 0.406 | –
NCI-H1915 | 0.49 | 0.48 | 0.514 | 0.492 | 0.494 | 0.712 | 0.676 | 0.705 | 0.606 | 0.326
NCI-H1944 | 0.677 | 0.577 | 0.603 | 0.399 | – | 0.516 | 0.481 | 0.475 | 0.428 | –
NCI-H1975 | 0.779 | 0.752 | 0.74 | 0.701 | 0.655 | 0.766 | 0.775 | 0.768 | 0.576 | 0.676
NCI-H1993 | 1.21 | 0.901 | 0.842 | 0.73 | 0.746 | 0.745 | 0.857 | 0.8 | 0.85 | 0.527

Cell Line | relative viability ([1]; first compound 0.253 µM) | relative viability ([1]; first compound 0.8 µM) | relative viability ([1]; first compound 2.53 µM) | relative viability ([1]; first compound 8 µM) | relative viability ([2]; first compound 0.08 µM) | relative viability ([2]; first compound 0.253 µM) | relative viability ([2]; first compound 0.8 µM) | relative viability ([2]; first compound 2.53 µM) | relative viability ([2]; first compound 8 µM) | relative viability ([1]; first compound 0.08 µM)
NCI-H2009 | 0.751 | 0.722 | 0.75 | 0.708 | – | – | – | – | – | 0.498
NCI-H2023 | 0.631 | 0.619 | 0.647 | 0.654 | – | – | – | – | – | 0.256
NCI-H2085 | 0.828 | 0.828 | 0.828 | 0.807 | 0.971 | 0.953 | 1.07 | 1 | 0.942 | 0.835
NCI-H2087 | 0.649 | 1.26 | 0.809 | 0.663 | 1.31 | 1.24 | 1.5 | 1.17 | 1.25 | 0.276
NCI-H2126 | 0.815 | 0.812 | 0.807 | 0.702 | 1 | 1.03 | 0.992 | 1.09 | 0.962 | 0.79
NCI-H2170 | 0.958 | 0.799 | 0.787 | 0.713 | 0.859 | 0.797 | 0.849 | 0.826 | 0.711 | 0.76
NCI-H2228 | 0.869 | 0.639 | 0.431 | 0.826 | – | – | – | – | – | 0.496
NCI-H2342 | 0.738 | 0.694 | 0.701 | 0.788 | 0.475 | 0.44 | 0.468 | 0.379 | 0.389 | 0.591
NCI-H2347 | 0.611 | 0.736 | 0.796 | 0.559 | 0.598 | 0.748 | 0.967 | 0.732 | 0.677 | 0.502
NCI-H2405 | – | 0.984 | 1.03 | 0.896 | 0.706 | – | 0.85 | 0.796 | 0.505 | 0.782
NCI-H3122 | 1.08 | 1.01 | 1.17 | 0.982 | 0.977 | 1.02 | 1.04 | 0.999 | 0.819 | 0.752
PC-3 [JPC-3] | – | 0.668 | 0.756 | 0.587 | 0.799 | – | 0.965 | 0.869 | 0.652 | 0.786
PC-14 | 0.667 | 0.725 | 0.733 | 0.782 | 0.263 | 0.276 | 0.393 | 0.315 | 0.381 | 0.21
RERF-LC-KJ | 0.672 | 0.66 | 0.758 | 0.632 | 0.888 | 0.773 | 0.918 | 0.948 | 0.967 | 0.624
SK-LU-1 | 0.753 | 0.771 | 0.718 | 0.691 | – | – | – | – | – | 0.527
SK-MES-1 | 1.14 | 1.04 | 1.08 | 1.05 | – | – | – | – | – | 1.04
SW 900 | 0.334 | 0.441 | 0.733 | 0.358 | 0.646 | 0.596 | 0.579 | 0.597 | 0.403 | 0.477
SW 1573 | 0.76 | 0.804 | 0.818 | 0.622 | – | – | – | – | – | –
UMC-11 | 0.467 | 0.428 | 0.375 | 0.506 | – | – | – | – | – | 0.149
